In PMC6033897, “Characterization and Validation of a Human 3D Cardiac Microtissue for the Assessment of Changes in Cardiac Pathology” (Scientific Reports, 2018):
Structures can show the parent of a compound that is named as a salt.

What was measured:
cardiac microtissues [1] = experiment: Cellular viability (ATP depletion, CellTiter-Glo) in cardiac microtissues; type: cell-based, human; settings: for IC50: read-out: Cellular viability (ATP depletion) IC50
Method: (§1) Cellular ATP concentrations were assessed using the CellTiter-Glo® Luminescent Cell Viability Assay as per the manufacturer’s instructions (Promega); for cardiac microtissues 40 µl media was removed prior to the addition of 40 µl CellTiter-Glo® reagent. […] Data from the same treatment on minimum of 3 occasions were averaged to represent the mean ATP measurement.

cardiac microtissues [2] = experiment: ER integrity (ER-Tracker blue imaging) in cardiac microtissues; type: cell-based, human; settings: for IC50: read-out: ER integrity IC50
Method: (§2) Cardiac microtissues were stained with fluorescent probes in cell culture media, 40 µl media was removed and 40 µl of 2x multiplexed dye was added back to the well for 30 minutes at 37 °C, 5% CO2. Fluorescent probes used were ER-Tracker blue (2 µM) to measure endoplasmic reticulum (ER) integrity and TMRE (500 nM) to measure mitochondrial membrane potential (ΔΨm). All microtissues were imaged on a Cell Voyager 7000 (YokogawaInc.) and images captured using a 20x objective (Olympus UPLSAPO 0.75 NA, 0.6 mm WD), with a 2 × 2 bin. Plates are imaged live, prior to use the stage temperature was set to 37 °C and CO2 level at 5%. […] Transmitted light images were acquired using a 100 W Halogen lamp as an illumination source. Images were captured over a 60 μm range in the Z-axis with a 5 μm interval between slices. Z-stack images were output as a maximal projection of multiple z-planes.
(§3) Maximum projection images were imported and analysed in the Columbus Platform (v2.7, Perkin Elmer Inc.).

cardiac microtissues [3] = experiment: Mitochondrial membrane potential (ΔΨm, TMRE imaging) in cardiac microtissues; type: cell-based, human; settings: for IC50: read-out: Mitochondrial membrane potential (ΔΨm) IC50
Method: as §2, §3

[4] = total Cmax, therapeutically relevant maximum total plasma concentration; source not given; cited from earlier work
hCMEC [5] = experiment: ER integrity in 2D monoculture; type: cell-based; settings: Homo sapiens
Method: (§4) For 2D monoculture, hiPS-CM, hCMEC and hCF were cultured as described above and seeded in CellCarrier-384 Ultra microplates (Perkin Elmer, 6057300) at 5000, 2500 and 1750 cells/well respectively.
(§5) Monoculture cells were stained with fluorescent probes diluted in cell culture media, 25 µl media was removed and 25 µl of 2x multiplexed dye was added back to the well for 15 minutes at 37 °C, 5% CO2.

hiPS-CM [6] = experiment: ER integrity in 2D monoculture; type: cell-based; settings: Homo sapiens
Method: as §4, §5

hCMEC [7] = experiment: Mitochondrial membrane potential (ΔΨm) in 2D monoculture; type: cell-based; settings: Homo sapiens
Method: as §4, §5

hiPS-CM [8] = experiment: as above; type: cell-based; settings: Homo sapiens
Method: as §4, §5

hCMEC [9] = experiment: Cellular viability (ATP depletion) in 2D monoculture; type: cell-based; settings: Homo sapiens
Method: as §4, §1

hiPS-CM [10] = experiment: as above; type: cell-based; settings: Homo sapiens
Method: as §4, §1

hCF [11] = experiment: ER integrity in 2D monoculture; settings: Homo sapiens, read-out: ER integrity IC50
hCF [12] = experiment: Cellular viability (ATP depletion) in 2D monoculture; settings: Homo sapiens, read-out: Cellular viability (ATP depletion) IC50
hCF [13] = experiment: Mitochondrial membrane potential (ΔΨm) in 2D monoculture; settings: Homo sapiens, read-out: Mitochondrial membrane potential (ΔΨm) IC50
H9c2 cells = tested on: H9c2 cells; parameters: method as in PMID 18664550; settings: read-out: reported IC50 value in H9c2 cells; cited from earlier work
hESC-CMs = settings: read-out: reported IC50 value in hESC-CMs; cited from earlier work
cardiac microtissues [14] = experiment: Therapeutic index (IC50 in cardiac microtissues divided by total Cmax); type: cell-based, human
cardiac microtissues [15] = experiment: Histopathology (H&E, IHC, IF) of treated cardiac microtissues; type: cell-based, human; settings: 24 hours; sunitinib 100 µM; doxorubicin 0.1 and 30 µM (Fig. 2)
Method: Microtissues were harvested from 384 well-plates and washed twice in 1x PBS (Sigma P7059) subsequent to fixation in 3.7% paraformaldehyde (PFA) (Sigma F1635) at 4 °C for one hour. The 3.7% PFA was then removed and replaced with two washes of 1x PBS. The PBS was removed and replaced with liquid HistoGel (Thermo Fisher HG-4000-012) and left on ice for 30 minutes to solidify. The HistoGel pellet was placed into a histological cassette and processed using an enclosed tissue processor overnight. The HistoGel was then embedded using paraffin wax.
The formalin fixed paraffin embedded (FFPE) blocks were then sectioned at each time point at three 50 µm step levels with 8 × serial sections per level at 3 µm. H&E staining was performed on microtissue sections using Mayer’s Haematoxylin using a standard automated protocol. Standard automated immunohistochemistry (IHC) and immunofluorescence (IF) protocols were used for primary antibody detection at different dilutions (Supplementary Table 3) on microtissue sections. Diaminobenzadine (DAB) (Roche Diagnostics 760–159) was used to visualise positive staining in single-plex staining and Alkaline Phosphatase Fast Red (Roche Diagnostics 760–160) with DAB were used in dual staining, with a haematoxylin counterstain. […] A minimum of 15 microtissues per time point/treatment were evaluated. […]

[16] = Homo sapiens, cardiac microtissues, 72 hours, geometric mean
[17] = cardiac microtissues, mechanistic fingerprint
[18] = cardiac microtissues, 72 hours, geometric mean

| IC50 (cardiac microtissues [2]; [16]) [µM] | IC50 (cardiac microtissues [3]; [16]) [µM] | SMILES | IC50 (cardiac microtissues [1]; [16]) [µM] | Cmax [4] [nM] | other results |
| --- | --- | --- | --- | --- | --- |
| 3.56 | > 50 | C[C@@H]1[C@H](O)[C@@H](C)/C=C/C=C/C=C/C=C/C=C/C=C/C=C/[C@H](O[C@@H]2O[C@H](C)[C@@H](O)[C@H](N)[C@@H]2O)C[C@@H]2O[C@](O)(C[C@@H](O)C[C@@H](O)[C@H](O)CC[C@@H](O)C[C@@H](O)CC(=O)O[C@H]1C)C[C@H](O)[C@H]2C(=O)O [Amphotericin B] | 37.6 | 9000 | – |
| 1.67 | 0.97 | CC(=O)[C@]1(O)Cc2c(O)c3c(c(O)c2[C@@H](O[C@H]2C[C@H](N)[C@H](O)[C@H](C)O2)C1)C(=O)c1ccccc1C3=O [Idarubicin HCl] | 0.03 | 120 | – |
| > 100 | 2.84 | CS(=O)(=O)CCNCc1ccc(-c2ccc3ncnc(Nc4ccc(OCc5cccc(F)c5)c(Cl)c4)c3c2)o1 [Lapatinib] | 12.9 | 4180 | Cellular viability modulated at multiple of total Cmax (cardiac microtissues [1]; [17]): ≤ 10 times the total Cmax; ER integrity modulated at multiple of total Cmax (cardiac microtissues [2]; [17]): ≤ 100 times the total Cmax; ΔΨm modulated at multiple of total Cmax (cardiac microtissues [3]; [17]): ≤ 1 times the total Cmax; IC50 (hCMEC [5]; 24 hours): 26.7 µM; IC50 (hCMEC [5]; 72 hours): 4.4 µM; IC50 (hiPS-CM [6]; 24 hours): 23.6 µM; IC50 (hiPS-CM [6]; 72 hours): 3.1 µM; IC50 (hCMEC [7]; 24 hours): 5.47 µM; IC50 (hCMEC [7]; 72 hours): 11.6 µM; IC50 (hiPS-CM [8]; 24 hours): 31.9 µM; IC50 (hiPS-CM [8]; 72 hours): 23.6 µM; IC50 (hCMEC [9]; 24 hours): 16.2 µM; IC50 (hCMEC [9]; 72 hours): 3.07 µM; IC50 (hiPS-CM [10]; 72 hours): > 100 µM; IC50 (hCF [11]; 24 h): 14.7 µM; IC50 (hCF [11]; 72 h): 11 µM; IC50 (hCF [12]; 24 h): 21.6 µM; IC50 (hCF [12]; 72 h): 11 µM; IC50 (hCF [13]; 24 h): 42.9 µM; IC50 (hCF [13]; 72 h): 28.8 µM |
| > 100 | > 100 | Nc1nc2c(ncn2COCCO)c(=O)[nH]1 [Acyclovir] | > 100 | 6660 | – |
| 6.42 | 8.22 | CNC(=O)c1cc(Oc2ccc(NC(=O)Nc3ccc(Cl)c(C(F)(F)F)c3)cc2)ccn1 [Sorafenib Tosylate] | 8.72 | – | IC50 (H9c2 cells): 44.9 µM; IC50 (hESC-CMs): 15.2 µM |
| > 100 | > 100 | O=C1CC2(CCCC2)CC(=O)N1CCCCN1CCN(c2ncccn2)CC1 [Buspirone HCl] | 56.4 | 30 | – |
| > 100 | > 100 | Cc1ccc(C)c(OCCCC(C)(C)C(=O)O)c1 [Gemfibrozil] | > 100 | 99900 | – |
| > 30 | > 30 | C#Cc1cccc(Nc2ncnc3cc(OCCOC)c(OCCOC)cc23)c1 [Erlotinib] | 20.8 | 3000 | – |
| 23.7 | > 100 | CC(C)(C)c1ccc(C(O)CCCN2CCC(C(O)(c3ccccc3)c3ccccc3)CC2)cc1 (stereo not drawn) [Terfenadine] | 13 | 130 | – |
| 0.82 | > 100 | O=C(C1CCCCC1)N1CC(=O)N2CCc3ccccc3C2C1 (stereo not drawn) [Praziquantel] | 10.1 | 640 | – |
| 60 | 11.3 | O=c1[nH]cc(F)c(=O)[nH]1 [Fluorouracil] | 27.5 | 4610 | – |
| 0.39 | 2.58 | CCN(CC)CCNC(=O)c1c(C)[nH]c(/C=C2\C(=O)Nc3ccc(F)cc32)c1C [Sunitinib Malate] | 8.23 | 250 | IC50 (cardiac microtissues [1]; Homo sapiens, cardiac microtissues, 24 hours): 46.2 µM; IC50 (hCMEC [5]; 24 hours): 2.96 µM; IC50 (hCMEC [5]; 72 hours): 12.7 µM; IC50 (hiPS-CM [6]; 24 hours): 4.48 µM; IC50 (hiPS-CM [6]; 72 hours): 2.63 µM; IC50 (hCMEC [7]; 24 hours): 9.57 µM; IC50 (hCMEC [7]; 72 hours): 2.97 µM; IC50 (hiPS-CM [8]; 24 hours): 16.1 µM; IC50 (hiPS-CM [8]; 72 hours): 16.2 µM; IC50 (hCMEC [9]; 24 hours): 4.9 µM; IC50 (hCMEC [9]; 72 hours): 0.8 µM; IC50 (hiPS-CM [10]; 24 hours): 24.7 µM; IC50 (hiPS-CM [10]; 72 hours): 27.1 µM; Histopathological / morphological changes (cardiac microtissues [15]): clear reduction in overall cellularity; IC50 (hCF [11]; 24 h): 6.59 µM; IC50 (hCF [11]; 72 h): 0.37 µM; IC50 (hCF [12]; 24 h): 16.5 µM; IC50 (hCF [12]; 72 h): 4 µM; IC50 (hCF [13]; 24 h): 17.8 µM; IC50 (hCF [13]; 72 h): 11.6 µM |
| > 100 | > 100 | CC(C(=O)O)c1cccc(C(=O)c2ccccc2)c1 (stereo not drawn) [Ketoprofen] | 37.6 | – | – |
| > 50 | > 50 | Nc1cc(N2CCCCC2)nc(N)[n+]1[O-] [Minoxidil] | > 50 | 14800 | – |

Further lines, the compound ahead of its results:

| SMILES | IC50 (cardiac microtissues [2]; [16]) [µM] | IC50 (cardiac microtissues [3]; [16]) [µM] | IC50 (cardiac microtissues [1]; [16]) [µM] | Cmax [4] [nM] | other results |
| --- | --- | --- | --- | --- | --- |
| CN1CCN(C2=Nc3cc(Cl)ccc3Nc3ccccc32)CC1 [Clozapine] | – | – | – | 470 | – |
| CC(C)NCC(O)c1ccc(O)c(O)c1 (stereo not drawn) [Isoproterenol HCl] | 76.9 | 59.2 | > 100 | 10 | – |
| O=C1c2c(O)ccc(O)c2C(=O)c2c(NCCNCCO)ccc(NCCNCCO)c21 [Mitoxantrone diHCl] | 1.1 | 0.98 | 0.29 | – | – |
| COc1cc(N)c(Cl)cc1C(=O)NC1CCN(CCCOc2ccc(F)cc2)CC1OC (stereo not drawn) [Cisapride Hydrate] | – | – | – | 170 | IC50 (cardiac microtissues [1]; [18]): 76.4 µM; IC50 (cardiac microtissues [2]; [18]): 32.8 µM; IC50 (cardiac microtissues [3]; [18]): > 100 µM |
| COC(=O)Nc1nc2ccc(C(=O)c3ccccc3)cc2[nH]1 [Mebendazole] | 5.97 | > 50 | > 50 | 2030 | – |
| O=C1C[C@@H](c2ccc(O)cc2)Oc2cc(O)cc(O)c21 [Narigenin] | – | – | – | 15400 | IC50 (cardiac microtissues [1]; [18]): 62.5 µM; IC50 (cardiac microtissues [2]; [18]): > 100 µM; IC50 (cardiac microtissues [3]; [18]): > 100 µM |
| Cc1nc(Nc2ncc(C(=O)Nc3c(C)cccc3Cl)s2)cc(N2CCN(CCO)CC2)n1 [Dasatinib] | > 100 | > 100 | 27.1 | – | Therapeutic index (TI): lowest IC50 of ΔΨm, ER integrity or ATP depletion / total Cmax (cardiac microtissues [14]): ≤ 100 times Cmax |
| O=P1(N(CCCl)CCCl)NCCCO1 (stereo not drawn) [Cyclophosphamide] | – | – | – | 153000 | IC50 (cardiac microtissues [1]; Homo sapiens, 72 h): 54.4 µM; IC50 (cardiac microtissues [2]; Homo sapiens, 72 h): 60.7 µM; IC50 (cardiac microtissues [3]; Homo sapiens, 72 h): 65.7 µM |
| CC(C)C[C@H](NC(=O)[C@H](Cc1ccccc1)NC(=O)c1cnccn1)B(O)O [Bortezomib] | 91.8 | 1.62 | 0.35 | 290 | – |
| CN(C)CCN(Cc1cccs1)c1ccccn1 [Methapyrilene] | – | – | – | 15300 | – |
